Test results published in ChEMBL document CHEMBL1201862, “PubChem BioAssay data set” (2004).
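How tested: cells in 96-well plates exposed to compound for 48 hours at five concentrations. GI50 marks 50% less growth.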 The source made the active and inactive calls. Cut-off read from the data, not from the text of the source: active = GI50 up to about 1.1 µM and inactive = higher.

Experiments:
Experiment in all cases: NCI-60 cell line screen, 48 h
[1] = system: SNB-75
[2] = system: Hs-578T
[3] = system: ACHN
[4] = system: M14
[5] = system: IGROV-1
[6] = system: SF-295
[7] = system: 786-0
[8] = system: SN12C
[9] = system: T47D
[10] = system: EKVX
[11] = system: OVCAR-8
[12] = system: TK-10
[13] = system: HCC 2998
[14] = system: SK-MEL-5
[15] = system: HCT-116
[16] = system: HCT-15
[17] = system: HT-29
[18] = system: SF-539
[19] = system: HOP-62
[20] = system: KM12
[21] = system: MDA-N
[22] = system: SW-620
[23] = system: SK-OV-3
[24] = system: UACC-62
[25] = system: BT-549
[26] = system: A549
[27] = system: SK-MEL-28
[28] = system: HOP-92
[29] = system: MCF7
[30] = system: K562
[31] = system: NCI-H226
[32] = system: CCRF-CEM
[33] = system: UO-31
[34] = system: MDA-MB-231
[35] = system: U-251
[36] = system: CAKI-1
[37] = system: LOX IMVI
[38] = system: NCI/ADR-RES
[39] = system: OVCAR-4
[40] = system: COLO 205
[41] = system: MOLT-4
[42] = system: NCI-H522
[43] = system: UACC-257
[44] = system: SF-268
[45] = system: RXF 393
[46] = system: NCI-H460
[47] = system: MDA-MB-435
[48] = system: Malme-3M
[49] = system: OVCAR-3
[50] = system: SNB-19
[51] = system: DU-145
[52] = system: OVCAR-5
[53] = system: NCI-H23
[54] = system: PC-3
[55] = system: A498
[56] = system: HL-60
[57] = system: RPMI-8226
[58] = system: SK-MEL-2

Structure (SMILES): COc1ccc2c(c1)CCCN1Cc3cc(OC)c(OC)cc3CC21 (centres undefined)
- GI50 [1]: 21.4 µM (inactive)
- GI50 [2]: > 100 µM (inactive)
- GI50 [3]: > 100 µM (inactive)
- GI50 [4]: 18.9 µM (inactive)
- GI50 [5]: 22.1 µM (inactive)
- GI50 [6]: > 100 µM (inactive)
- GI50 [7]: 73.3 µM (inactive)
- GI50 [8]: 89.1 µM (inactive)
- GI50 [9]: 20.2 µM (inactive)
- GI50 [10]: > 100 µM (inactive)
- GI50 [11]: > 100 µM (inactive)
- GI50 [12]: > 100 µM (inactive)
- GI50 [13]: 15.8 µM (inactive)
- GI50 [14]: 37.8 µM (inactive)
- GI50 [15]: 18.2 µM (inactive)
- GI50 [16]: > 100 µM
- GI50 [17]: 28.1 µM (inactive)
- GI50 [18]: 81.8 µM (inactive)
- GI50 [19]: 60.4 µM (inactive)
- GI50 [20]: > 100 µM (inactive)
- GI50 [21]: > 100 µM (inactive)
- GI50 [22]: > 100 µM (inactive)
- GI50 [23]: 66.2 µM (inactive)
- GI50 [24]: 86.3 µM (inactive)
- GI50 [25]: > 100 µM (inactive)
- GI50 [26]: > 100 µM (inactive)
- GI50 [27]: > 100 µM (inactive)
- GI50 [28]: 15.9 µM (inactive)
- GI50 [29]: > 100 µM (inactive)
- GI50 [30]: 80.7 µM (inactive)
- GI50 [31]: > 100 µM (inactive)
- GI50 [32]: 99.8 µM (inactive)
- GI50 [33]: 48.8 µM (inactive)
- GI50 [34]: > 100 µM (inactive)
- GI50 [35]: > 100 µM (inactive)
- GI50 [36]: > 100 µM (inactive)
- GI50 [37]: 44.8 µM (inactive)
- GI50 [38]: > 100 µM (inactive)
- GI50 [39]: 43.7 µM (inactive)
- GI50 [40]: 51.1 µM (inactive)
- GI50 [41]: > 100 µM (inactive)
- GI50 [42]: 75.5 µM (inactive)
- GI50 [43]: 56.1 µM (inactive)
- GI50 [44]: 50.9 µM (inactive)
- GI50 [45]: 25.6 µM (inactive)
- GI50 [46]: 50.2 µM (inactive)
- GI50 [47]: > 100 µM (inactive)
- GI50 [48]: > 100 µM (inactive)
- GI50 [49]: 82.2 µM (inactive)
- GI50 [50]: > 100 µM (inactive)
- GI50 [51]: > 100 µM (inactive)
- GI50 [52]: > 100 µM (inactive)
- GI50 [53]: > 100 µM (inactive)
- GI50 [54]: > 100 µM (inactive)

Structure (SMILES): O=C(N/N=C(COc1cccc(Cl)c1)\N=C\c1ccncc1)c1ccncc1
- GI50 [2]: > 100 µM (inactive)
- GI50 [3]: > 100 µM (inactive)
- GI50 [4]: > 100 µM (inactive)
- GI50 [5]: > 100 µM (inactive)
- GI50 [6]: > 100 µM (inactive)
- GI50 [7]: > 100 µM (inactive)
- GI50 [8]: > 100 µM (inactive)
- GI50 [9]: > 100 µM (inactive)
- GI50 [10]: > 100 µM (inactive)
- GI50 [11]: > 100 µM (inactive)
- GI50 [12]: > 100 µM (inactive)
- GI50 [13]: > 100 µM (inactive)
- GI50 [15]: > 100 µM (inactive)
- GI50 [55]: 68.9 µM (inactive)
- GI50 [16]: > 100 µM
- GI50 [17]: > 100 µM (inactive)
- GI50 [18]: > 100 µM (inactive)
- GI50 [19]: > 100 µM (inactive)
- GI50 [56]: > 100 µM (inactive)
- GI50 [20]: > 100 µM (inactive)
- GI50 [21]: > 100 µM (inactive)
- GI50 [22]: > 100 µM (inactive)
- GI50 [23]: > 100 µM (inactive)
- GI50 [24]: > 100 µM (inactive)
- GI50 [57]: > 100 µM (inactive)
- GI50 [25]: > 100 µM (inactive)
- GI50 [26]: > 100 µM (inactive)
- GI50 [27]: > 100 µM (inactive)
- GI50 [28]: 35.6 µM (inactive)
- GI50 [29]: > 100 µM (inactive)
- GI50 [30]: > 100 µM (inactive)
- GI50 [31]: > 100 µM (inactive)
- GI50 [32]: > 100 µM (inactive)
- GI50 [34]: > 100 µM (inactive)
- GI50 [35]: > 100 µM (inactive)
- GI50 [36]: > 100 µM (inactive)
- GI50 [37]: > 100 µM (inactive)
- GI50 [38]: > 100 µM (inactive)
- GI50 [39]: > 100 µM (inactive)
- GI50 [40]: > 100 µM (inactive)
- GI50 [41]: > 100 µM (inactive)
- GI50 [42]: > 100 µM (inactive)
- GI50 [43]: > 100 µM (inactive)
- GI50 [44]: > 100 µM (inactive)
- GI50 [45]: 36.4 µM (inactive)
- GI50 [46]: > 100 µM (inactive)
- GI50 [47]: 75.3 µM (inactive)
- GI50 [48]: > 100 µM (inactive)
- GI50 [49]: > 100 µM (inactive)
- GI50 [50]: > 100 µM (inactive)
- GI50 [58]: > 100 µM (inactive)
- GI50 [51]: > 100 µM (inactive)
- GI50 [52]: > 100 µM (inactive)
- GI50 [53]: > 100 µM (inactive)
- GI50 [54]: > 100 µM (inactive)
